This note sets out measurements from patent publication US5569655A, “Substituted heterocyclylisoquinolinium salts and compositions and method of use thereof” (Sterling Winthrop Inc., priority 1994, dated 1996).

The first assay deals with PCP recognition sites (PCP receptor). Briefly: [3H]TCP radioreceptor assay (binding to PCP recognition sites). More on the design: species or system rat (male Sprague-Dawley. To be noted: 10 μM; rat whole brain membranes, approx. 1 nM [3H]TCP. As for the experimental part: [^3 H]TCP Radioreceptor Assay
[^3 H]TCP binding to PCP recognition sites was performed as described by Vignon et al. Brain Research 1983, 280, 194-197. Male Sprague-Dawley rats were sacrificed by decapitation, and whole brains were homogenized in 10 volumes (wt/vol) of cold Tris-HCl buffer (50 mM, pH 7.7) using a Brinkmann Polytron (setting 6, 30 sec). The homogenate was centrifuged at 40,000×g for 10 min at 4° C. The supernatant was decanted, and the homogenization and centrifugation steps were repeated twice as described above. Following this, the pellet was resuspended in Tris-HCl (5 mM, pH 7.7) at a tissue concentration of 0.5-0.75 g/ml, and one ml aliquots were frozen at -70° C. until use. The binding characteristics for PCP recognition sites were not altered by the freezing of membrane suspensions.
On the day of the assay, membrane aliquots were thawed, resuspended in fresh 5 mM Tris-HCl buffer at a tissue concentration of 1 mg/ml, and stored on ice until use. Each assay tube contained 100 μl of [^3 H]TCP at a final concentration of approximately 1 nM, 100 μl of various concentrations of the compounds of interest, 500 μl of the tissue suspension and 300 μl of buffer to a final assay volume of 1 ml and a final protein concentration of 0.5 mg/tube. Non-specific binding was defined by addition of a final concentration of 100 μM PCP to blank tubes. All tubes were incubated at room temperature for 25 min before termination of the reaction by rapid filtration over Whatman GF/B glass fiber filters that had been presoaked in a solution of 0.5% polyethylenimine for at least 1 hr prior to use. Filters were washed with three 4 ml volumes of cold Tris buffer. Following addition of scintillation cocktail, the amount of bound radioactivity was determined by liquid scintillation spectrometry using a Beckman LS 5000TA liquid scintillation counter with an efficiency for tritium of approximately 55%. Inhibition constants (Ki values) were calculated using the EBDA/LIGAND program (McPherson, J. Pharmacol. Meth. 1985, 14, 213-228), purchased from Elsevier/Biosoft, Inc. The results are reported as Ki values (in nM) which are expressed as the mean of at least two separate determinations, or as a percent (%) inhibition of binding at 10 μM.
(§1) Table 4 summarizes the results obtained from the testing of representative compounds of the invention in the [^3 H]TCP radioreceptor assay as well as in the antagonism of NMDA-induced neurotoxicity in cultured neurons.
`COc1ccc(Cn2ccc(C3(c4ccn(Cc5ccc(OC)cc5)n4)CC4c5ccccc5C3c3scc[n+]34)n2)cc1` (stereo not drawn) [18(e), 11,11-di-[(1-p-methoxybenzyl)-pyrazol-3-yl)]-5,10-ethano-5,10-dihydrothiazolo[3,2-b]isoquinolinium perchlorate]: the “[3H]TCP percent inhibition of binding @ 10 μM” value is listed as 6%.

The assay is the same for the next values; noted with them: rat whole brain membranes, approx. 1 nM [3H]TCP; mean of at least two determinations.
`O=C1CC(C2(C3=COC(=O)C3)CC3c4ccccc4C2c2scc[n+]23)=CO1.[O-][Cl+3]([O-])([O-])[O-]` (stereo not drawn) [Example 17, 11,11-di-(5-oxo-4,5-dihydro-3-furyl)-5,10-ethano-5,10-dihydrothiazolo[3,2-b]isoquinolinium perchlorate] came in with a Ki of 640 nM.

In turn, `CCCCn1cc[n+]2c1C1c3ccccc3C2CC1(c1ccoc1)c1ccoc1` (stereo not drawn) [201(f), 11,11-di(3-furyl)-5,10-ethano-5,10-dihydro-1-butylimidazo-[1,2-b]isoquinolin-4-ium chloride] came in with a Ki of 36.3 nM.

`c1ccc2c(c1)C1CC(c3ccoc3)(c3ccoc3)C2c2scc[n+]21` (single isomer, unassigned; (+)) [5(e), (+)-11,11-di(3-furyl)-5,10-ethano-5,10-dihydrothiazolo[3,2-b]isoquinolinium chloride] returned a Ki of 2 nM.

The compound `c1ccc(Cn2cc[n+]3c2C2c4ccccc4C3CC2(c2ccccc2)c2ccccc2)cc1` (stereo not drawn) [9(b), 11,11-diphenyl-5,10-ethano-5,10-dihydro-1-benzylimidazo[1,2-b]isoquinolin-4-ium chloride] came in with a Ki of 89 nM.

With `c1ccc(Cn2cc[n+]3c2C2c4ccccc4C3CC2(c2ccoc2)c2ccoc2)cc1` (stereo not drawn) [2(F), 11,11-di(3-furyl)-5,10-ethano-5,10-dihydro-1-benzylimidazo[1,2-b]isoquinolin-4-ium chloride], the affinity corresponds to a Ki of 7.7 nM.

In the case of `c1ccc2c(c1)C1CC(c3ccoc3)(c3ccoc3)C2c2n(Cc3cccc4ccccc34)cc[n+]21` (stereo not drawn) [205(e), 11,11-di(3-furyl)-5,10-ethano-5,10-dihydro-1(1-naphthylmethyl)imidazo[1,2-b]isoquinolin-4-ium chloride], the inhibitory constant (Ki) was found to be 329 nM.

The compound `c1ccc2c(c1)C1CC(c3ccoc3)(c3ccoc3)C2c2n(Cc3ccc4ccccc4c3)cc[n+]21` (stereo not drawn) [204(e), 11,11-di(3-furyl)-5,10-ethano-5,10-dihydro-1-(2-naphthyl-methyl)imidazo[1,2-b]isoquinolin-4-ium chloride] had a Ki of 330 nM.

With `c1ccc2c(c1)C1CC(c3ccoc3)(c3ccoc3)C2c2scc[n+]21` (racemic) [4(e), 11,11-di(3-furyl)-5,10-ethano-5,10-dihydrothiazolo[3,2-b]isoquinolinium chloride], the Ki was determined as 2.9 nM.

Turning to `c1ccc(CCCn2cc[n+]3c2C2c4ccccc4C3CC2(c2ccoc2)c2ccoc2)cc1` (stereo not drawn) [200(g), 11,11-di(3-furyl)-5,10-ethano-5,10-dihydro-1-(3-phenylpropyl)imidazo[1,2-b]isoquinolin-4-ium chloride], the affinity, expressed as Ki, was 67.8 nM.

As for `COc1cccc2c1C1c3scc[n+]3C2CC1(c1ccoc1)c1ccoc1` (stereo not drawn) [207(b), 11,11-di(3-furyl)-9-methoxy-5,10-ethano-5,10-dihydrothiazolo[3,2-b]isoquinolinium chloride], the affinity, expressed as Ki, was 14.1 nM.

`c1ccc2c(c1)C1CC(c3ccoc3)(c3ccoc3)C2c2scc[n+]21` (single isomer, unassigned; (-)) [5(c), (-)-11,11-di(3-furyl)-5,10-ethano-5,10-dihydrothiazolo[3,2-b]isoquinolinium chloride]: affinity was put at a Ki of 5 nM.

The compound `c1ccc2c(c1)C1CC(c3ccn[nH]3)(c3ccn[nH]3)C2c2scc[n+]21` (stereo not drawn) [18(h), 11,11-di-(pyrazol-5-yl)-5,10-ethano-5,10-dihydrothiazolo[3,2-b]isoquinolinium chloride] came in with a Ki of 21 nM.

As to `Cn1nc[n+]2c1C1c3ccccc3C2CC1(c1ccoc1)c1ccoc1` (stereo not drawn) [14(E), 11,11-di(3-furyl)-5,10-ethano-5,10-dihydro-1-methyl-1,2,4-triazolo[1,2-b]isoquinolin-4-ium chloride], affinity was put at a Ki of 14 nM.

For `c1ccc(C(c2ccccc2)n2cc[n+]3c2C2c4ccccc4C3CC2(c2ccoc2)c2ccoc2)cc1` (stereo not drawn) [203(d), 11,11-di(3-furyl)-5,10-ethano-5,10-dihydro-1-(1,1-diphenylmethyl)imidazo[1,2-b]isoquinolin-4-ium hexafluorophosphate], the inhibition constant Ki was found to be 306 nM.

In turn, `CCOC1(OCC)C2c3ccccc3C([n+]3ccn(Cc4ccccc4)c32)C1(C)C` (stereo not drawn) [8(b), 11,11-diethoxy-12,12-dimethyl-5,10-ethano-5,10-dihydro-1-benzylimidazo[1,2-b]isoquinolin-4-ium chloride] returned a Ki of 10 nM.

In turn, `COc1ccc(Cn2cc[n+]3c2C2c4ccccc4C3CC2(c2ccoc2)c2ccoc2)cc1` (stereo not drawn) [19(F), 11,11-di(3-furyl)-5,10-ethano-5,10-dihydro-1-(p-methoxybenzyl)imidazo[1,2-b]isoquinolin-4-ium chloride] registered an inhibition constant (Ki) of 30 nM.

In turn, `CCOC1(OCC)C2c3ccccc3C([n+]3cnn(C)c32)C1(C)C` (stereo not drawn) [10(b), 11,11-diethoxy-12,12-dimethyl-5,10-ethano-5,10-dihydro-1-methyl-1,2,4-triazolo[1,2-b]isoquinolin-4-ium chloride] displayed a Ki of 30 nM.

With `c1ccc(-n2cc[n+]3c2C2c4ccccc4C3CC2(c2ccoc2)c2ccoc2)cc1` (stereo not drawn) [199(f), 11,11-di(3-furyl)-5,10-ethano-5,10-dihydro-1-phenylimidazo[1,2-b]isoquinolin-4-ium chloride], the inhibitory constant (Ki) is 52.2 nM.

Take `c1ccc(C2(c3ccccc3)CC3c4ccccc4C2c2scc[n+]23)cc1` (stereo not drawn) [2(b), 11,11-diphenyl-5,10-ethano-5,10-dihydrothiazolo[1,2-b]isoquinolin-4-ium chloride]: the Ki was found to be 4.2 nM.

`c1ccc(Cn2cc[n+]3c2C2c4ccccc4C3CC2(c2cc[nH]n2)c2cc[nH]n2)cc1` (stereo not drawn) [202(c), 11,11-di(pyrazol-3-yl)-5,10-ethano-5,10-dihydro-1-benzylimidazo-[1,2-b]isoquinolin-4-ium chloride] yielded an inhibition constant (Ki) of 36.5 nM.

On to `Cn1nc[n+]2c1C1c3ccccc3C2CC1(c1ccccc1)c1ccccc1` (stereo not drawn) [11(g), 11,11-diphenyl-5,10-ethano-5,10-dihydro-1-methyl-1,2,4-triazo[1,2-b]isoquinolin-4-ium chloride], for which the affinity corresponds to a Ki of 35 nM.

The compound `Cn1cc[n+]2c1C1c3ccccc3C2CC1(c1ccccc1)c1ccccc1` (stereo not drawn) [3(b), 11,11-diphenyl-5,10-ethano-5,10-dihydro-1-methylimidazo[1,2-b]isoquinolin-4-ium chloride] returned a Ki of 13 nM.

For the next assay, the system named is NMDA-induced neurotoxicity in cultured cortical neurons. Briefly: Antagonism of NMDA-induced neurotoxicity in cultured neurons. The assay is classed as cell-based, mouse (Swiss-Webster). The conditions noted are these: 500 μM NMDA for 30 minutes; LDH activity after 24 hours. As to the method: Antagonism of NMDA-induced Neurotoxicity in Cultured Neurons
Preparation of cultured cortical neurons
Pregnant, Swiss-Webster mice were obtained from Taconic Farms (Germantown, N.Y.) and sacrificed 16 days post conception. Fetuses were removed and placed in a sterile dish containing Hank's balanced salt solution (HBSS), pH 7.4. Brain cortices were dissected, meninges were removed, the tissue was minced and placed into a solution of HBSS containing 0.25% (w/v) trypsin at 37° C. for 15 minutes. Tissue was then triturated with a sterile pasteur pipet, diluted with minimal essential media (Gibco 330-1430), pH 7.4, supplemented with 10% horse serum, 10% fetal calf serum, 2 mM 1-glutamine, 21 mM d-glucose, 2.2 g/L sodium bicarbonate, 1000 U/ml penicillin, and 1,000 μg/ml streptomycin. Cells were plated onto Falcon primaria 96 well plates at a final density of 50,000 cells/well and incubated at 37° C. in the presence of 5% (v/v) carbon dioxide. After 5 days, plating media was replaced with maintenance media containing minimal essential media (Gibco 330-1430), pH 7.4, supplemented with 10% horse serum, 10% 1-glutamine, 21 mM D-glucose, 2.2 g/l sodium bicarbonate,1,000 U/ml penicillin, 1,000 μg/ml streptomycin, and 10 μM cytosine arabinoside. On days 7 and 10, media was replaced with maintenance media as above lacking the cytosine arabinoside. Experiments were conducted on day 13.
Neuroprotection Assessment
Day 13 cultured cortical neurons were washed twice with minimal essential media, pH 7.4 and then exposed for 30 minutes to 500 μM N-methyl-D-aspartic acid (NMDA) with or without varying concentrations of test agents. […] MK-801 and test agents were prepared in minimal essential media supplemented with 21 mM d-glucose and 2.2 g/L sodium bicarbonate (MEM). After 30 minutes, media was replaced with MEM alone. Exposure of neurons to test agents was limited to the NMDA treatment period. Twenty-four hours after removal of NMDA, an aliquot of media from each well was removed for assessment of cell injury by determining lactate dehydrogenase (LDH) activity by the method of Wroblewski and LaDue Proc. Soc. Exp. Biol. Med. 1955, 90, 210-213. The results are expressed as an IC50 (in nM) value (concentration causing 50% inhibition) for the antagonism of NMDA-induced neurotoxicity.
as §1
`c1ccc2c(c1)C1CC(c3ccoc3)(c3ccoc3)C2c2scc[n+]21` (single isomer, unassigned; (+)) [5(e), (+)-11,11-di(3-furyl)-5,10-ethano-5,10-dihydrothiazolo[3,2-b]isoquinolinium chloride] came in with an IC50 of 20 nM.

Staying with this assay, now noted: Mus musculus, Cortical neurone, 500 μM NMDA for 30 minutes; LDH activity after 24 hours.
The compound `c1ccc2c(c1)C1CC(c3ccoc3)(c3ccoc3)C2c2scc[n+]21` (racemic) [4(e), 11,11-di(3-furyl)-5,10-ethano-5,10-dihydrothiazolo[3,2-b]isoquinolinium chloride] showed a half-inhibitory concentration (IC50) of 50 nM.

Consider `c1ccc2c(c1)C1CC(c3ccoc3)(c3ccoc3)C2c2scc[n+]21` (single isomer, unassigned; (-)) [5(c), (-)-11,11-di(3-furyl)-5,10-ethano-5,10-dihydrothiazolo[3,2-b]isoquinolinium chloride], for which the 50% inhibitory concentration (IC50) was 32 nM.

On to `c1ccc2c(c1)C1CC(c3ccn[nH]3)(c3ccn[nH]3)C2c2scc[n+]21` (stereo not drawn) [18(h), 11,11-di-(pyrazol-5-yl)-5,10-ethano-5,10-dihydrothiazolo[3,2-b]isoquinolinium chloride], for which the IC50 came to 480 nM.
